# In article PMC7399811, “Analogues of a Cyclic Antimicrobial Peptide with a Flexible Linker Show Promising Activity against Pseudomonas aeruginosa and Staphylococcus aureus” (Antibiotics, 2020):
# Square brackets hold non-standard residues; d marks the D form. Peptide text beside a SMILES is read from it. Bip = N[C@@H](Cc1ccc(-c2ccccc2)cc1)C(=O)O; 2Nal = N[C@@H](Cc1ccc2ccccc2c1)C(=O)O; Dab = NCC[C@H](N)C(=O)O; AEEA = NCCOCCOCC(=O)O
# Key:
# red blood cells = conditions: at 150 µM peptide; 0.5% v/v RBC in PBS, 1 h 37 °C, absorbance 414 nm, normalized to melittin (100%) and PBS (0%)
# Protocol: A total of 150 µL of 5 µM melittin was added to the positive control wells 1-6H of a V-shaped 96-well polypropylene plate and left overnight. The melittin solution was removed and the positive control wells were washed 3 times with 150 µL PBS. Afterwards, a 2.5 µM melittin solution was added to the positive control wells. For the assay, 0-negative blood in EDTA was used. Blood was washed by mixing 3 mL of PBS with 1 mL of whole blood, and centrifuged for 8 min at 3000 rpm. The supernatant was discarded and 4 mL of PBS added, mixed gently, and centrifuged. This wash cycle was repeated but the last centrifuge velocity was raised to 4000 rpm. Next, 40 µL red blood cells (RBC) was suspended in 8 mL of PBS to achieve an RBC suspension of 0.5% volume/volume (v/v). Peptide solutions were prepared at 600 µM, two times the highest concentration. A total of 150 µL peptide solution was transferred to row A. Next, 75 µL PBS was transferred to wells B1 to G12, as well as H7-12 (negative control), and the peptides were serially diluted two-fold. Then, 75 µL RBC suspension was added to all wells and the plate was covered with a Microseal® film and incubated for 1 h at 37 °C. Next, the plate was centrifuged for 10 min at 4000 rpm. Subsequently, 60 µL supernatant was transferred into the corresponding wells of a clear, polystyrene, flat-bottomed 96-well ELISA plate. The absorbance was read at λ = 414 nm with a VersaMaxTM Tunable Microplate Reader and the data were evaluated on Softmax® Pro. The results were normalized with respect to the average positive (100%) and negative (0%) controls, as described previously [43].
# S. aureus ATCC 29213 = format: cell-based
# Protocol: (§1) Bacterial strains (E. coli ATCC 29522, S. aureus ATCC 29213, A. baumannii ATCC 19606, and P. aeruginosa ATCC 27853) were grown overnight on LB agar plates at 37 °C. Overnight cultures were prepared by inoculation of two to three colonies in 10 mL non-cation adjusted Mueller–Hinton broth (MHB) media (BD BBLTM Beef extract powder, BD BactoTMCasamino acids, and DIFCO soluble starch). Bacterial inoculum for MIC testing was prepared as balanced cultures, as previously described. The bacterial suspension was adjusted using MHB to an OD600 of 0.1, approximately 1·10^8 colony forming units (CFU/mL), and then diluted 1:200 in MHB, to give a final bacterial suspension of 5·10^5 CFU/mL, as described by Wiegand et al.. […] For MIC determination, all peptides were measured in triplicates using the protocol described by Wiegand et al. for “antimicrobial peptides that require the presence of acetic acid/BSA”. In brief, 20 µL peptide solution and gentamycin solution was transferred to column 1 of 96-well plates. Next, 10 µL 0.2% BSA; 0.01% acetic acid MHB media was transferred to column 2–11. Subsequently, peptides were serially diluted two-fold in the MIC plate and 90 µL bacterial suspension was transferred to all wells in column 1–11. Next, 100 µL bacterial suspension was transferred to column 12 D–F (growth control) and 100 µL media to column 12 A–C (sterility control). After an overnight incubation at 37 °C of the MIC plates, MIC values were determined as the lowest concentration at which there was no visible bacterial growth. For the inoculum control, 10 µL of solution from a positive-growth control well from each bacterial strain was dissolved in 990 µL phosphate-buffered saline (PBS) (1:100 dilution) in an Eppendorf tube. This solution was vortexed and 100 µL transferred to another Eppendorf tube containing 900 µL PBS (1:10 dilution) and vortexed. Then, 100 µL of each dilution was spread onto the MHB media plates, in triplicates, to achieve a CFU dilution of 1:1000 and 1:10,000, respectively. The plates were incubated overnight at 37 °C. The colonies were counted and 50 colonies were expected on the 1:10,000 plates and 500 on the 1:1000 plates.
# P. aeruginosa ATCC 27853 = format: cell-based
# Protocol: as §1
# E. coli ATCC 29522 = format: cell-based; conditions: ATCC 29522
# Protocol: as §1
# A. baumannii ATCC 19606 = format: cell-based; conditions: ATCC 19606
# Protocol: as §1
Structure (SMILES),percent hemolytic activity against red blood cells (%H) (red blood cells),Minimum inhibitory concentration SA (S. aureus ATCC 29213),Minimum inhibitory concentration PA (P. aeruginosa ATCC 27853),Minimum inhibitory concentration EC (E. coli ATCC 29522),Minimum inhibitory concentration AB (A. baumannii ATCC 19606)
"NCCCC[C@@H]1NC(=O)[C@H](Cc2ccc3ccccc3c2)NC(=O)COCCOCCNC(=O)[C@H](Cc2ccc(-c3ccccc3)cc2)NC(=O)[C@H](CCCCN)NC(=O)[C@H](CCCCN)NC(=O)[C@H](Cc2ccc3ccccc3c2)NC(=O)[C@H](CCCCN)NC(=O)[C@H](CC(N)=O)NC1=O [BSI-9, cyclo(Lys-Nal-Lys-Lys-Bip-O2Oc-Nal-Lys-Asn), reference compound] (cyclo(K[2Nal]KK[Bip][AEEA][2Nal]KN))",33%,32 µg/mL,16 µg/mL,64 µg/mL,32 µg/mL
NCCCC[C@@H]1NC(=O)[C@H](Cc2ccc3ccccc3c2)NC(=O)COCCOCCNC(=O)[C@H](Cc2ccc(-c3ccccc3)cc2)NC(=O)[C@H](CCCCN)NC(=O)[C@H](CCCCN)NC(=O)[C@H](Cc2ccccc2)NC(=O)[C@H](CCCCN)NC(=O)[C@H](CC(N)=O)NC1=O [compound 5] (cyclo(KFKK[Bip][AEEA][2Nal]KN)),4%,>64 µg/mL,32 µg/mL,>64 µg/mL,>64 µg/mL
N=C(N)NCCC[C@@H]1NC(=O)[C@H](Cc2ccc3ccccc3c2)NC(=O)[C@H](CCN)NC(=O)[C@H](CC(N)=O)NC(=O)[C@H](CCN)NC(=O)[C@H](Cc2ccc3ccccc3c2)NC(=O)COCCOCCNC(=O)[C@H](Cc2ccccc2)NC(=O)[C@H](CCN)NC1=O [compound 18] (cyclo([Dab][2Nal]R[Dab]F[AEEA][2Nal][Dab]N)),30%,64 µg/mL,16 µg/mL,64 µg/mL,>64 µg/mL
N=C(N)NCCC[C@@H]1NC(=O)[C@H](CCN)NC(=O)[C@H](Cc2ccc3ccccc3c2)NC(=O)[C@H](CCN)NC(=O)[C@H](CC(N)=O)NC(=O)[C@H](CCN)NC(=O)[C@H](Cc2ccc3ccccc3c2)NC(=O)COCCOCCNC(=O)[C@H](Cc2ccc(-c3ccccc3)cc2)NC1=O [compound 12] (cyclo([Dab][2Nal][Dab]R[Bip][AEEA][2Nal][Dab]N)),98%,1 µg/mL,4 µg/mL,32 µg/mL,32 µg/mL
NCCCC[C@@H]1NC(=O)[C@H](CCCCN)NC(=O)[C@H](Cc2ccc3ccccc3c2)NC(=O)[C@H](CCCCN)NC(=O)[C@H](CCCCN)NC(=O)[C@H](CC(N)=O)NC(=O)[C@H](Cc2ccc3ccccc3c2)NC(=O)COCCOCCNC(=O)[C@H](Cc2ccc(-c3ccccc3)cc2)NC1=O [compound 1] (cyclo(K[2Nal]KK[Bip][AEEA][2Nal]NK)),–,>64 µg/mL,32 µg/mL,>64 µg/mL,32 µg/mL
NCCCC[C@@H]1NC(=O)[C@H](Cc2ccc3ccccc3c2)NC(=O)COCCOCCNC(=O)[C@H](Cc2ccc(-c3ccccc3)cc2)NC(=O)[C@H](CC(N)=O)NC(=O)[C@H](CCCCN)NC(=O)[C@H](Cc2ccc3ccccc3c2)NC(=O)[C@H](CCCCN)NC(=O)[C@H](CCCCN)NC1=O [compound 2] (cyclo(K[2Nal]KN[Bip][AEEA][2Nal]KK)),–,>64 µg/mL,64 µg/mL,>64 µg/mL,>64 µg/mL
N=C(N)NCCC[C@@H]1NC(=O)[C@H](Cc2ccc3ccccc3c2)NC(=O)[C@H](CCCNC(=N)N)NC(=O)[C@H](CC(N)=O)NC(=O)[C@H](CCN)NC(=O)[C@H](Cc2ccc3ccccc3c2)NC(=O)COCCOCCNC(=O)[C@H](Cc2ccc(-c3ccccc3)cc2)NC(=O)[C@H](CCN)NC1=O [compound 15] (cyclo(R[2Nal]R[Dab][Bip][AEEA][2Nal][Dab]N)),–,8 µg/mL,16 µg/mL,64 µg/mL,>64 µg/mL
N=C(N)NCCC[C@@H]1NC(=O)[C@H](CC(N)=O)NC(=O)[C@H](CCN)NC(=O)[C@H](Cc2ccc3ccccc3c2)NC(=O)COCCOCCNC(=O)[C@H](Cc2ccc(-c3ccccc3)cc2)NC(=O)[C@H](CCN)NC(=O)[C@H](CCN)NC(=O)[C@H](Cc2ccc3ccccc3c2)NC1=O [compound 10] (cyclo(R[2Nal][Dab][Dab][Bip][AEEA][2Nal][Dab]N)),66%,2 µg/mL,2 µg/mL,32 µg/mL,32 µg/mL
NCCCC[C@@H]1NC(=O)[C@H](Cc2ccc3ccccc3c2)NC(=O)COCCOCCNC(=O)[C@H](Cc2ccccc2)NC(=O)[C@H](CCCCN)NC(=O)[C@H](CCCCN)NC(=O)[C@H](Cc2ccc3ccccc3c2)NC(=O)[C@H](CCCCN)NC(=O)[C@H](CC(N)=O)NC1=O [compound 6] (cyclo(K[2Nal]KKF[AEEA][2Nal]KN)),6%,>64 µg/mL,32 µg/mL,>64 µg/mL,>64 µg/mL
N=C(N)NCCC[C@@H]1NC(=O)[C@H](CC(N)=O)NC(=O)[C@H](CCN)NC(=O)[C@H](Cc2ccc3ccccc3c2)NC(=O)COCCOCCNC(=O)[C@H](Cc2ccccc2)NC(=O)[C@H](CCN)NC(=O)[C@H](CCN)NC(=O)[C@H](Cc2ccc3ccccc3c2)NC1=O [compound 17] (cyclo(R[2Nal][Dab][Dab]F[AEEA][2Nal][Dab]N)),3%,64 µg/mL,16 µg/mL,64 µg/mL,>64 µg/mL
NCCCC[C@@H]1NC(=O)[C@H](Cc2ccccc2)NC(=O)COCCOCCNC(=O)[C@H](Cc2ccccc2)NC(=O)[C@H](CCCCN)NC(=O)[C@H](CCCCN)NC(=O)[C@H](Cc2ccccc2)NC(=O)[C@H](CCCCN)NC(=O)[C@H](CC(N)=O)NC1=O [compound 8] (cyclo(KFKKF[AEEA]FKN)),3%,>64 µg/mL,>64 µg/mL,>64 µg/mL,>64 µg/mL
N=C(N)NCCC[C@@H]1NC(=O)[C@H](Cc2ccc3ccccc3c2)NC(=O)[C@H](CCCNC(=N)N)NC(=O)[C@H](CC(N)=O)NC(=O)[C@H](CCN)NC(=O)[C@H](Cc2ccc3ccccc3c2)NC(=O)COCCOCCNC(=O)[C@H](Cc2ccccc2)NC(=O)[C@H](CCN)NC1=O [compound 16] (cyclo(R[2Nal]R[Dab]F[AEEA][2Nal][Dab]N)),16%,–,16 µg/mL,64 µg/mL,64 µg/mL
NCCCC[C@@H]1NC(=O)[C@H](Cc2ccc3ccccc3c2)NC(=O)COCCOCCNC(=O)[C@H](Cc2ccc(-c3ccccc3)cc2)NC(=O)[C@H](CCCCN)NC(=O)[C@H](CCCCN)NC(=O)[C@H](Cc2ccc3ccccc3c2)NC(=O)[C@H](CC(N)=O)NC(=O)[C@H](CCCCN)NC1=O [compound 4] (cyclo(N[2Nal]KK[Bip][AEEA][2Nal]KK)),–,>64 µg/mL,64 µg/mL,>64 µg/mL,64 µg/mL
NCCCC[C@@H]1NC(=O)[C@H](Cc2ccc3ccccc3c2)NC(=O)COCCOCCNC(=O)[C@H](Cc2ccc(-c3ccccc3)cc2)NC(=O)[C@H](CCCCN)NC(=O)[C@H](CC(N)=O)NC(=O)[C@H](Cc2ccc3ccccc3c2)NC(=O)[C@H](CCCCN)NC(=O)[C@H](CCCCN)NC1=O [compound 3] (cyclo(K[2Nal]NK[Bip][AEEA][2Nal]KK)),–,64 µg/mL,64 µg/mL,>64 µg/mL,64 µg/mL
